Measured values reported in patent publication US12366576B2, “Compositions, assays, and methods for direct modulation of fatty acid metabolism” (Dana-Farber Cancer Institute, Inc., priority 2016, dated 2025).
Bridge positions count the residues as written; N and C are the ends. Square brackets hold non-standard residues; d marks the D form. Ends that are not written are not given here. Peptide text beside a SMILES is read from it. S5 = C=CCCC[C@](C)(N)C(=O)O

How the values were obtained:
[1] = tested on: endogenous MCL-1; test: Biotinylated SAHB pulldown from MEF lysates, anti-MCL-1 Western analysis; format: binding, mouse; conditions: for summary of binding properties: binding to MCL-1: pull-downs; for effect of alanine mutation on biotinylated MCL-1 SAHBD interaction with MCL-1: pull-downs from MEF lysates
Procedure: An exploratory proteomics analysis was conducted to identify proteins that interact with the MCL-1 BH3 domain helix. An extensive library of MCL-1 stapled BH3 peptides (FIG. 2) was generated to both identify novel protein interactors by mass spectrometry and then deploy the stapled peptide constructs as novel probes to dissect and pharmacologically modulate the identified protein interactors and associated signaling pathways. As an example, an N-terminally biotinylated stapled peptide designed based on the sequence of MCL-1's BH3 domain (Btn-MCL-1 SAHBD), or vehicle, was incubated with wild-type mouse embryonic fibroblast (MEF) lysates, followed by high stringency streptavidin capture. To validate the proteomics workflow and ensure that Btn-MCL-1 SAHBD could, in fact, engage protein interactors in a lysate, eluates were first run on a gel for anti-MCL-1 Western analysis. […] For mass spectrometry (MS) analysis, eluates were run on a reducing/denaturing gel followed by Coomassie staining (FIG. 4) and in-gel digestion was performed before injection on the instrument.
The binding determinants for the MCL-1 BH3/VLCAD interaction were investigated by generating a series of biotinylated MCL-1 SAHBD alanine point mutants (FIG. 18A) and performing streptavidin pull-downs from MEF lysates, followed by VLCAD and MCL-1 western analysis of the resulting eluates. […] Native alanines and residues not mutated are colored white.
Wild-type MEFs were trypsinized, washed once with cold PBS, and lysed on ice with NP-40 lysis buffer (50 mM Tris, pH 7.4, 150 mM NaCl, 0.5% (v/v) NP-40, complete protease inhibitor pellet (Roche)) using 1 ml of lysis buffer for every 10 million cells lysed. Cellular debris was pelleted at 14,000 g for 10 min at 4° C., and the supernatant was quantified using the BCA Protein Assay Kit (Thermo Fisher Scientific). 2 mg of lysate per pulldown were then exposed to 50 μL of pre-equilibrated High Capacity Streptavidin Agarose beads (Thermo Fisher Scientific). […] The beads were then pelleted and washed with NP-40 lysis buffer three times before eluting the protein sample from the beads by heating at 70° C. for 10 min in SDS loading buffer. Samples were then subjected to electrophoresis and either Western analysis or Coomassie stain (SimplyBlue Safe Stain, Thermo Fisher Scientific). […] Coomassie stained gels were then processed for proteomics analysis (see below). Biotinylated SAHB pulldowns of recombinant protein were performed as above incubating 5 nmol of SAHB with 10 pmol of rVLCAD in 500 μL total volume. Densitometry analyses were performed using ImageJ software.

[2] = molecular target: T1, VLCAD (Homo sapiens, UniProt P49748); test: Isothermal calorimetry (ITC); format: binding; conditions: 80 μM recombinant VLCAD, injection of 100 μM peptide, 25° C.
T1 construct: 10x His (N); made in house; host or cells: E. coli BL21(DE3), pET19b
T1 sequence (P49748 40-655): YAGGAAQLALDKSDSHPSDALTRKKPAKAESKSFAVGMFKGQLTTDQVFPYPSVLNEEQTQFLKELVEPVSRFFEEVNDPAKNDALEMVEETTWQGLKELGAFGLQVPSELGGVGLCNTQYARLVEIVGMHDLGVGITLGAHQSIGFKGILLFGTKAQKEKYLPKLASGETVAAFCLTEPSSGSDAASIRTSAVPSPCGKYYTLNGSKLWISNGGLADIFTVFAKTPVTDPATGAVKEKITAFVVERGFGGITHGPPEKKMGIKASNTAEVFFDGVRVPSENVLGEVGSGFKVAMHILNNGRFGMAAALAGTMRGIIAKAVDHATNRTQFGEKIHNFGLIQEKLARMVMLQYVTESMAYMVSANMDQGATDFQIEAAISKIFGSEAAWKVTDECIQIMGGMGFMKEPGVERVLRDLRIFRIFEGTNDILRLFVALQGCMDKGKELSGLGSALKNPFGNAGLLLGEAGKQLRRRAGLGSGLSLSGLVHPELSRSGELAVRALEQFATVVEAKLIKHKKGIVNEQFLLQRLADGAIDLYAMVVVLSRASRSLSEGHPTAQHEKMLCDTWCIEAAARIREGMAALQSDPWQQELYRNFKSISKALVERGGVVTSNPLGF
Source text: The alanine mutant peptide panel was then utilized in an isothermal calorimetry (ITC)-based enthalpy screen to assess the relative binding activities of the different peptides to recombinant VLCAD protein (FIG. 19A). Although some differences in binding hierarchy were observed between the pull down (native protein) and ITC (purified recombinant protein) methods, those peptides displaying the strongest and weakest binding activity for VLCAD were similar between the two analyses.
VLCAD. Mature human VLCAD lacking its cleavable leader sequence (aa 40-655) (NP_000009.1) was subcloned into the pET19b vector (Novagen) using NdeI and XhoI restriction sites. Correct insertion was confirmed by DNA sequencing. The 10× His-tagged VLCAD construct was expressed in BL21(DE3) E. coli, and once cells reached an OD of 0.8 after growing at 37° C., they were induced with 0.5 mM […] (IPTG) (Gold Biotechnology I2481C) at 37° C. for 4 hours. Bacterial pellets were resuspended in lysis buffer (500 mM NaCl, 50 mM HEPES, 5% glycerol, pH 7.5, complete protease inhibitor tablet) and lysed by microfluidization (M-110L; Microfluidics). Cell lysates were then cleared by centrifugation at 20,000 rpm for 45 min (Beckman Avanti J-E, rotor type JA-20). Cleared cellular lysates were then subjected to Ni-NTA (QIAGEN) affinity chromatography, followed by elution with 300 mM imidazole (Sigma 12399) and overnight dialysis at 4° C. Dialyzed VLCAD was then concentrated and subjected to size exclusion chromatography (GE Healthcare Life Sciences Superdex 200 10/300 GL) at 4° C. using 150 mM NaCl, 50 mM Tris, pH 8.0. Protein was used upon isolation and was stored at 4° C. for up to two weeks. Successful protein production was confirmed by SDS-PAGE, Western blot, intact MS, and enzymatic activity assay.
A peptide enthalpy screen was performed by adding 80 μM of recombinant VLCAD to the cell in analysis buffer (20 mM HEPES, pH 7.5, 150 mM NaCl, 1 mM TCEP, and 1% DMSO), followed by injection of 2.0 μL of 100 μM peptide by syringe, using an Affinity ITC (TA instruments) at 25° C. Injections were performed in technical triplicate for each peptide. […] Data were analyzed with the NanoAnalyze software package (TA instruments) using a single binding site model and thermodynamic parameters calculated as follows: ΔG=ΔH−TΔS=−RTlnKB, where ΔG, ΔH, and ΔS are the changes in free energy, enthalpy and entropy of binding, respectively.

## D218A: biotinylated MCL-1 SAHBD alanine point mutant D218A (RKALETLRRVGAGV[S5]RNH[S5]TAF; staple 15-19; also: biotinylated, place not given here)
[1]
  summary of binding properties: binding to MCL-1: Binds
[2]
  relative binding activity for VLCAD (ITC enthalpy screen, consistent with pull down): robust binding

## F228A: biotinylated MCL-1 SAHBD alanine point mutant F228A (RKALETLRRVGDGV[S5]RNH[S5]TAA; staple 15-19; also: biotinylated, place not given here)
[1]
  summary of binding properties: binding to MCL-1: Does not bind
[2]
  relative binding activity for VLCAD (ITC enthalpy screen, consistent with pull down): weak VLCAD association

## R214A: biotinylated MCL-1 SAHBD alanine point mutant R214A (RKALETLARVGDGV[S5]RNH[S5]TAF; staple 15-19; also: biotinylated, place not given here)
[1]
  summary of binding properties: binding to MCL-1: Does not bind
[2]
  relative binding activity for VLCAD (ITC enthalpy screen, consistent with pull down): weak VLCAD association

## L213A: biotinylated MCL-1 SAHBD alanine point mutant L213A (RKALETARRVGDGV[S5]RNH[S5]TAF; staple 15-19; also: biotinylated, place not given here)
[1]
  effect of alanine mutation on biotinylated MCL-1 SAHBD interaction with MCL-1: disrupted
  summary of binding properties: binding to MCL-1: Does not bind
[2]
  relative binding activity for VLCAD (ITC enthalpy screen, consistent with pull down): weak VLCAD association

## R207A: biotinylated MCL-1 SAHBD alanine point mutant R207A (AKALETLRRVGDGV[S5]RNH[S5]TAF; staple 15-19; also: biotinylated, place not given here)
[1]
  summary of binding properties: binding to MCL-1: diminished binding
[2]
  relative binding activity for VLCAD (ITC enthalpy screen, consistent with pull down): weak VLCAD association

## CC(=O)N[C@@H](CCCNC(=N)N)C(=O)N[C@@H](CCCCN)C(=O)N[C@@H](C)C(=O)N[C@@H](CC(C)C)C(=O)N[C@@H](CCC(=O)O)C(=O)N[C@H](C(=O)N[C@@H](CC(C)C)C(=O)N[C@@H](CCCNC(=N)N)C(=O)N[C@@H](CCCNC(=N)N)C(=O)N[C@H](C(=O)NCC(=O)N[C@@H](CC(=O)O)C(=O)NCC(=O)N[C@@H](C)C(=O)N[C@@]1(C)CCCC=CCCC[C@@](C)(C(=O)N[C@H](C(=O)N[C@@H](C)C(=O)N[C@@H](Cc2ccccc2)C(N)=O)[C@@H](C)O)NC(=O)[C@H](Cc2c[nH]cn2)NC(=O)[C@H](CC(N)=O)NC(=O)[C@H](CCCNC(=N)N)NC1=O)C(C)C)[C@@H](C)O [V220A] (Ac-RKALETLRRVGDGA[S5]RNH[S5]TAF-NH2; staple 15-19; N-terminus and C-terminus assumed)
[1]
  effect of alanine mutation on biotinylated MCL-1 SAHBD interaction with MCL-1: uniquely disruptive
  summary of binding properties: binding to MCL-1: weakly or not
[2]
  relative binding activity for VLCAD (ITC enthalpy screen, consistent with pull down): robust binding
[2]; listed as MCL-1 SAHBD V220A
  relative binding activity for VLCAD (ITC enthalpy screen, consistent with pull down): strongest binder

## MCL-1 SAHBD: hydrocarbon-stapled peptide mimicking the MCL-1 BH3 domain (Stabilized Alpha-Helix of BCL-2 Domain), SEQ ID NO:19 (RKALETLRRVGDGV[S5]RNH[S5]TAF; staple 15-19)
[1]
  summary of binding properties: binding to MCL-1: Binds

## R215A: biotinylated MCL-1 SAHBD alanine point mutant R215A (RKALETLRAVGDGV[S5]RNH[S5]TAF; staple 15-19; also: biotinylated, place not given here)
[1]
  summary of binding properties: binding to MCL-1: Binds
[2]
  relative binding activity for VLCAD (ITC enthalpy screen, consistent with pull down): weak VLCAD association
